The source made the active and inactive calls. The calls are words filed in the database; no cut-off is given here. Some results are limits rather than exact numbers.

What is called IC50 is the midpoint of a concentration-inhibition curve.

Series [1] is filed under the species Homo sapiens. Kind of series: Selectivity ratio of IC50 for recombinant HDAC2 (unknown origin) to IC50 for recombinant HDAC6 (unknown origin).
Series [2] is described as follows: Neurotoxicity in mouse HT-22 cells assessed as cell survival at 10 uM incubated for 48 hrs by MTT assay. Type of series: cell-based. Particulars: ht-22, 48 h, 10 µM.
The species named for series [3] is Homo sapiens. In words: Selectivity ratio of IC50 for recombinant HDAC4 (unknown origin) to IC50 for recombinant HDAC6 (unknown origin).
The species named for series [4] is Homo sapiens. In words: Selectivity ratio of IC50 for recombinant HDAC3 (unknown origin) to IC50 for recombinant HDAC6 (unknown origin).
A short description of series [5]: Metal chelating activity assessed as compound-Cu2+ complex formation at 10 to 200 uM incubated for 2 mins followed by pyrocatechol violet addition and further incubated for 10 mins by microplate reader based assay. Particulars: dose 10-200 µM, time 12.0 min.
The next series concerns N9. Kind of series: Immunomodulatory activity in LPS-induced mouse N9 microglial cells assessed as increase in TREM2 expression at 0.1 to 5 uM incubated for 24 hrs by Western blot analysis. Type of series: functional. The following applies: dose 0.1-5 µM. (In western blotting, separated proteins are transferred to a membrane and probed.)
Series [6] is filed under the species Homo sapiens. In words: Selectivity ratio of IC50 for recombinant HDAC8 (unknown origin) to IC50 for recombinant HDAC6 (unknown origin).
The next series has as its target T1, Histone deacetylase 7 (Homo sapiens, UniProt Q8WUI4).
T1 sequence (Q8WUI4 whole entry): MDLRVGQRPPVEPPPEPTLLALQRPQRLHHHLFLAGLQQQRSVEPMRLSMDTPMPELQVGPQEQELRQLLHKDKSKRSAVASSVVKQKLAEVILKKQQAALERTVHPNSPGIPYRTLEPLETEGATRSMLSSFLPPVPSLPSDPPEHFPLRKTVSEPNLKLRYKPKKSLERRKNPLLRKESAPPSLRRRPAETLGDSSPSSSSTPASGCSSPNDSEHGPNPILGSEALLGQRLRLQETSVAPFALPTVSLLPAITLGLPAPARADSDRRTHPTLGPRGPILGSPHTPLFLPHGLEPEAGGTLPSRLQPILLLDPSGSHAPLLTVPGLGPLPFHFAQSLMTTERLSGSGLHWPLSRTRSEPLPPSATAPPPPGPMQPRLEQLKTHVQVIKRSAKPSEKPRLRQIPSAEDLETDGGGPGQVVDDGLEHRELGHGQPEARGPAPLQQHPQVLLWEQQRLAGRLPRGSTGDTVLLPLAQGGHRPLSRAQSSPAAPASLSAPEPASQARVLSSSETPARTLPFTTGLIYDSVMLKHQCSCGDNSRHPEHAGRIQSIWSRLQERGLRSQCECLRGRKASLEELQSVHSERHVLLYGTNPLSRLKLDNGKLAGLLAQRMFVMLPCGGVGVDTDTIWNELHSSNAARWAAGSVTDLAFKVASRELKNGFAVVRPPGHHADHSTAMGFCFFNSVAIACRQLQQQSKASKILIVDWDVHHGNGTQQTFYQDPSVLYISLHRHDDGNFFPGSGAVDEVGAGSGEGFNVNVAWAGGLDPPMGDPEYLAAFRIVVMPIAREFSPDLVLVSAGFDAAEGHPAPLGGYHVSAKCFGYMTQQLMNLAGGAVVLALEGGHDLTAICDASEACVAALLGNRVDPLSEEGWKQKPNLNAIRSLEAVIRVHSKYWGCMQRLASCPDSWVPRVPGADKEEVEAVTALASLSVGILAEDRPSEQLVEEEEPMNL
In words: Inhibition of recombinant HDAC7 (unknown origin) using Boc-Lys(trifluoroacetyl)-AMC as substrate pre-incubated for 1 hr followed by substrate addition and measured after 2 hrs by fluorescence based assay.

The species entered for series [7] is Homo sapiens. Kind of series: Selectivity ratio of IC50 for recombinant HDAC1 (unknown origin) to IC50 for recombinant HDAC6 (unknown origin).
In the next series the target is Histone deacetylase 3 (Homo sapiens, UniProt O15379). In words: Inhibition of recombinant HDAC3 (unknown origin) using Boc-Lys(acetyl)-AMC as substrate preincubated for 1 hr followed by substrate addition and measured after 2 hrs by fluorescence based assay.
Histone deacetylase 3, sequence (O15379 whole entry): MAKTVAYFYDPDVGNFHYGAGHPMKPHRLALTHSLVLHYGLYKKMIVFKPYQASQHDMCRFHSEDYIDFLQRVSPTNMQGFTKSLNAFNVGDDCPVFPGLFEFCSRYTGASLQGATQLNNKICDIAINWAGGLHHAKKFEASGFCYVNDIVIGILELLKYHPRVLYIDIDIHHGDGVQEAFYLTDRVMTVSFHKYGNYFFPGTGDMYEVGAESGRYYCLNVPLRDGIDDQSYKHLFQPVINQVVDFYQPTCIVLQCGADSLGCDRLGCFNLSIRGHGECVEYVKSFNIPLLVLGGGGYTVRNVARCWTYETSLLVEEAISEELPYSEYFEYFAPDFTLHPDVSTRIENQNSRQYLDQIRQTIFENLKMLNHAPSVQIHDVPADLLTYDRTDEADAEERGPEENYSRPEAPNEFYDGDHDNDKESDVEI
A further series deals with Histone deacetylase 2 (Homo sapiens, UniProt Q92769). In words: Inhibition of recombinant HDAC2 (unknown origin) using Boc-Lys(Ac)-AMC as substrate pre-incubated for 1 hr followed by substrate addition and measured after 2 hrs by fluorescence based assay.
Histone deacetylase 2, sequence (Q92769 whole entry): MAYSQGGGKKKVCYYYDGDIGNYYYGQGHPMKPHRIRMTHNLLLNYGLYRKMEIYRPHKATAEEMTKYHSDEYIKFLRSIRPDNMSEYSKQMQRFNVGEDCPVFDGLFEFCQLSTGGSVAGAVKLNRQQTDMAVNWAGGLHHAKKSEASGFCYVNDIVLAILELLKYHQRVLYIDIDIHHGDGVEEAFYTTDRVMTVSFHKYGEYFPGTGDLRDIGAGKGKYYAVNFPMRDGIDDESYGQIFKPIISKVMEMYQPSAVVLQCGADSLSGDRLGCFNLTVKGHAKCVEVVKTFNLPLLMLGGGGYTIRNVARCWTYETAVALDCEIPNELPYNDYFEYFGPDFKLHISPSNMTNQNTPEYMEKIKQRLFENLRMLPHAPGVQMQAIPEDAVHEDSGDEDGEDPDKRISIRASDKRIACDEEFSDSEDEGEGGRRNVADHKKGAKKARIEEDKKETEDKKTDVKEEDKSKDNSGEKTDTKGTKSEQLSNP
Series [8] in a line: Antioxidant activity of compound assessed as trolox equivalent of AAPH radical scavenging activity at 2 to 4 uM preincubated for 15 mins followed by AAPH addition and measured every 2 mins for 90 mins by ORAC-fluorescein assay. The format is functional. Particulars: dose 2-4 µM, time 105.0 min.
A short description of series [9]: Metal chelating activity assessed as Fe2+ -ferrozoine complex formation at 10 to 200 uM preincubated for 2 mins followed by ferrozine addition and further incubated for 10 mins by microplate reader based assay. Particulars: dose 10-200 µM, time 12.0 min.
The next series deals with Histone deacetylase 9 (Homo sapiens, UniProt Q9UKV0). Kind of series: Inhibition of recombinant HDAC9 (unknown origin) using Boc-Lys(trifluoroacetyl)-AMC as substrate pre-incubated for 1 hr followed by substrate addition and measured after 2 hrs by fluorescence based assay.
Histone deacetylase 9, sequence (Q9UKV0 whole entry): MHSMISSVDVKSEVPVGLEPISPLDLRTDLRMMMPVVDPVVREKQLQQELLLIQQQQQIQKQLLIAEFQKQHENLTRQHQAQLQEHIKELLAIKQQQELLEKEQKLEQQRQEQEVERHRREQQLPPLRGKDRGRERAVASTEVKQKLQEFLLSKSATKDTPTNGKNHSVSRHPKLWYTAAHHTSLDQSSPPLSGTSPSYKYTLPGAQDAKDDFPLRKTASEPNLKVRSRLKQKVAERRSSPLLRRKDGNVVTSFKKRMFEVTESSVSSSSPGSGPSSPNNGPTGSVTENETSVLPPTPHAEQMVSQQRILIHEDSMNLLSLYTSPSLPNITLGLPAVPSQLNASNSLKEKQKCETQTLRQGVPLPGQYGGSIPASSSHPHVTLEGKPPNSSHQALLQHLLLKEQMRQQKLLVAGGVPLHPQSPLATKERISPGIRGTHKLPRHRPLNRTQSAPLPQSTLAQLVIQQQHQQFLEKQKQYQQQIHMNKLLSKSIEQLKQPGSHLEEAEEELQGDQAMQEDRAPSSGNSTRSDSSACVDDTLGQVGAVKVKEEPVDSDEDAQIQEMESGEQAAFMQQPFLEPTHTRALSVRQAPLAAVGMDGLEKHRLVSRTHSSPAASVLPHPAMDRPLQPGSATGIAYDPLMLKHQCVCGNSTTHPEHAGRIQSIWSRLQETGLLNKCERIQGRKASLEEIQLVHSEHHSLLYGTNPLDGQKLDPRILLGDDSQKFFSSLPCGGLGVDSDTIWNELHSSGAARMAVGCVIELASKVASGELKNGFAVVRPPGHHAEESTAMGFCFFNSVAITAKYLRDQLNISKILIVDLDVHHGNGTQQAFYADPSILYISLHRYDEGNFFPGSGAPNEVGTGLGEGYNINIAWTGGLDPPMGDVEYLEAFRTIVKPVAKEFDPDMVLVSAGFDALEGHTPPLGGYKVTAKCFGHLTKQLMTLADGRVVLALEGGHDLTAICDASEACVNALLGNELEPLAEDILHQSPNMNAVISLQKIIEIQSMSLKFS

On to `COc1ccc2[nH]cc(CCN(Cc3ccc(C(=O)NO)cc3)C(=O)/C=C/c3ccc(O)c(OC)c3)c2c1`, for which the Ratio IC50 in the series filed under Homo sapiens [1] was 93; in the series listed under Homo sapiens [3] it was over 326; in the series filed under Homo sapiens [4], 53; in the series filed under Homo sapiens [6] it was 117; in the series filed under Homo sapiens [7] it was 25. Moreover, the Activity entry in [2] is recorded as “Non-Toxic”. Further, the outcome (in series [5]; in the series on N9; in [9]) was Active. For the same molecule, the half-maximal inhibitory concentration (IC50) at Histone deacetylase 7 is over 10000 nM; on Histone deacetylase 3, 1610 nM; at Histone deacetylase 2, 2850 nM; at Histone deacetylase 9 it was over 10000 nM. Also, the ORAC antioxidant capacity (Trolox equivalents) in series [8] stood at 2.1.

Turning to `COc1ccc2c(c1)c(CCNC(C)=O)cn2Cc1ccc(C(=O)NO)cc1`, the Ratio IC50 in the series filed under Homo sapiens [1] amounted to 30; in the series filed under Homo sapiens [3], 306; in the series listed under Homo sapiens [4], 57; in the series listed under Homo sapiens [6] it was 75; in the series listed under Homo sapiens [7] it was 23. Also, in series [2], the Activity entry is on record as “Toxic”. Also, the result in [5] and in [9] was Active. In addition, the result with N9 was inactive. For the same molecule, the IC50 at Histone deacetylase 7 worked out at 1650 nM; on Histone deacetylase 3 it was 641 nM; at Histone deacetylase 2 it was 336 nM; at Histone deacetylase 9 it was 362 nM. For the same molecule, the ORAC antioxidant capacity (Trolox equivalents) in series [8] was found to be 1.6.

For the origin of these results see ChEMBL document CHEMBL5036306 (J Med Chem, 2021).
